Here are results for 19 molecules from the SangsterLogP compilation.

Broadly, the logD is the decadic logarithm of the distribution of all forms, ionised or not, between an organic phase and buffer at a given pH. A higher logD goes with a more lipophilic compound.

One data set can be described thus: method code SF-HPLC, from DOI: 10.1016/0378-5173(94)00315-v. Particulars: pH 1.0.
As to `COc1ccc2cc(CC(=O)O)ccc2c1`, the logD came to 2.82.

Staying with this data set, now noted: pH 7.4.
For `COc1ccc2cc(CC(=O)OCC(=O)N(CCO)CCO)ccc2c1`, the logD amounted to 1.41. `CCCCNC(=O)COC(=O)Cc1ccc2cc(OC)ccc2c1`: the logD turned out to be 3.57. `CCC(C)NC(=O)COC(=O)Cc1ccc2cc(OC)ccc2c1` (centres undefined) had a logD of 3.31.

Turning to `COc1ccc2cc(CC(=O)OCC(=O)NC(C)C)ccc2c1`, the logD is 2.89. On the same count and under the same terms, under `COc1ccc2cc(CC(=O)OCC(=O)N3CCOCC3)ccc2c1` stands 2.13; under `C=CCN(CC=C)C(=O)COC(=O)Cc1ccc2cc(OC)ccc2c1`, 3.67; under `COc1ccc2cc(CC(=O)OCC(=O)N3CCCC3)ccc2c1`, 2.71.

Molecule `COc1ccc2cc(CC(=O)OCC(=O)NC(C)(C)C)ccc2c1` came in with a logD of 3.6. The molecule `COc1ccc2cc(CC(=O)OCC(=O)N(C)C)ccc2c1` registered a logD of 2.23. `CCCN(CCC)C(=O)COC(=O)Cc1ccc2cc(OC)ccc2c1` gave a logD of 4.04. Still for that read-out and setting: under `CCN(CCO)C(=O)COC(=O)Cc1ccc2cc(OC)ccc2c1` stands 1.98.

Regarding `CCN(CC)C(=O)COC(=O)Cc1ccc2cc(OC)ccc2c1`, the logD amounted to 3.05. On to `COc1ccc2cc(CC(=O)OCC(N)=O)ccc2c1`, for which the logD stood at 1.88.

The molecule `COc1ccc2cc(CC(=O)OCC(=O)NC3CCCCC3)ccc2c1` gave a log distribution coefficient (logD) of 3.99. Same read-out and setting: under `CNC(=O)COC(=O)Cc1ccc2cc(OC)ccc2c1` stands 2.19. The same measure, in the same setting: under `COc1ccc2cc(CC(=O)OCC(=O)N(C)CCO)ccc2c1` stands 1.58; under `CCCNC(=O)COC(=O)Cc1ccc2cc(OC)ccc2c1`, 3.1.

Take `CCNC(=O)COC(=O)Cc1ccc2cc(OC)ccc2c1`: the logD stood at 2.65.
